Test system: H9P33, H9P44 and H9P48 cells
Experiment: Microarray analysis of definitive endoderm on MEFs vs MATRIGEL +/- Wnt-3A (Table VI)
Experimental: Controls for each group included cells plated on […]-coated dishes and cultured in MEF-conditioned medium or cells plated on MEFs and cultured in ES medium. All groups contained three biological replicates and each biological replicate was repeated on two separate gene chips.
Sample preparation, hybridization, and image analysis were performed according to the Affymetrix Human Genome U133 Plus 2.0 Array. Following normalization and a log transformation, data analysis was performed using OmniViz® software (MA) and […] (VizXLabs, WA). Significant differences in gene expression between the samples were evaluated using analysis of variance and an F-test with adjusted P-value (Benjamini and Hochberg correction) of ≤0.05. Only genes with a present call in at least one group were included in the analysis.

[1] = DE treatment in low serum, on MEFS
[2] = log format, DE treatment in low serum + AA on MATRIGEL

Activin A: a member of the TGFβ superfamily; growth factor (R&D Systems) used to differentiate human embryonic stem cells
mean normalized intensity (log format), Homo sapiens glycophorin Erik STA (GPErik) gene [1]: −0.4544 | mean normalized intensity (log format), Homo sapiens growth differentiation factor 3 (GDF3), mRNA [1]: 2.875 | mean normalized intensity (log format), Homo sapiens haptoglobin (HP), mRNA [1]: 0.477 | mean normalized intensity (log format), Homo sapiens haptoglobin-related protein (HPR), mRNA [1]: −1.196 | mean normalized intensity (log format), Homo sapiens homeobox protein goosecoid mRNA, complete cds [1]: 1.894 | mean normalized intensity (log format), Homo sapiens hypothetical protein FLJ10718 (FLJ10718), mRNA [1]: 5.552 | mean normalized intensity (log format), Homo sapiens hypothetical protein FLJ10970 (FLJ10970), mRNA [1]: 3.02 | mean normalized intensity (log format), Homo sapiens hypothetical protein FLJ11316 (FLJ11316), mRNA [1]: 0.7553 | mean normalized intensity (log format), Homo sapiens hypothetical protein FLJ22252 similar to SRY-box containing gene 17 (FLJ22252), mRNA [1]: 4.5979 | mean normalized intensity (log format), Homo sapiens hypothetical protein FLJ23403 (FLJ23403), mRNA [1]: −1.004 | mean normalized intensity (log format), Homo sapiens lumican (LUM), mRNA [1]: 0.9488 | mean normalized intensity (log format), Homo sapiens mRNA for GATA-6, complete cds [1]: 5.343 | mean normalized intensity (log format), Homo sapiens mRNA for KIAA1409 protein, partial cds [1]: −1.032 | mean normalized intensity (log format), Homo sapiens mRNA; cDNA DKFZp434D0818 (from clone DKFZp434D0818) [1]: −0.3056 | mean normalized intensity (log format), Homo sapiens mRNA; cDNA DKFZp586J0624 (from clone DKFZp586J0624) [1]: 3.699 | mean normalized intensity (log format), Homo sapiens matrix metalloproteinase 14 (membrane-inserted) (MMP14), mRNA [1]: −0.09689 | mean normalized intensity (log format), Homo sapiens phorbolin-like protein MDS019 (MDS019), mRNA [1]: 2.408 | mean normalized intensity (log format), Homo sapiens presenilin stabilization factor b (PSF) mRNA [1]: 0.5675 | mean normalized intensity (log format), Homo sapiens reserved (KCNK12), mRNA [1]: 3.78 | mean normalized intensity (log format), Homo sapiens retinoid X receptor, gamma (RXRG), mRNA [1]: −0.3204 | mean normalized intensity (log format), Homo sapiens sema domain, immunoglobulin domain (Ig), short basic domain, secreted, (semaphorin) 3E (SEMA3E), mRNA [1]: 1.276 | mean normalized intensity (log format), Homo sapiens sema domain, seven thrombospondin repeats, (semaphorin) 5A (SEMA5A), mRNA [1]: 1.487 | mean normalized intensity (log format), Homo sapiens solute carrier family 16 (monocarboxylic acid transporters), member 3 (SLC16A3), mRNA [1]: 1.724 | mean normalized intensity (log format), Homo sapiens solute carrier family 21 (prostaglandin transporter), member 2 (SLC21A2), mRNA [1]: 2.433 | mean normalized intensity (log format), Homo sapiens type VI collagen alpha 2 chain precursor (COL6A2) mRNA [1]: 2.845 | mean normalized intensity (log format), Homo sapiens, alpha-1 (VI) collagen [1]: −2.269 | mean normalized intensity (log format), Homo sapiens, clone MGC: 4655, mRNA [1]: 2.476 | mean normalized intensity (log format), Human (clone 8B1) Br-cadherin mRNA [1]: −1.026 | mean normalized intensity (log format), Human (clone HSY3RR) neuropeptide Y receptor (NPYR) mRNA [1]: 5.48 | mean normalized intensity (log format), Human DNA sequence from clone RP1-181C24 on chromosome 6p11.1-12.2 (3 end of the BMP5 gene) [1]: −0.3731 | mean normalized intensity (log format), Human Fritz mRNA, complete cds [1]: 3.915 | mean normalized intensity (log format), Human dipeptidyl peptidase IV (CD26) mRNA [1]: −1.256 | mean normalized intensity (log format), Human glycophorin HeP2 mRNA, partial cds [1]: 0.2335 | mean normalized intensity (log format), Human link protein mRNA, complete cds [1]: −1.263 | mean normalized intensity (log format), Human mRNA for alpha-1 type II collagen [1]: −0.3802 | mean normalized intensity (log format), Human mRNA for apolipoprotein AI (apo AI) [1]: 2.497 | mean normalized intensity (log format), Human prostatic secretory protein 57 mRNA [1]: −0.4077 | mean normalized intensity (log format), KIAA0878 protein [1]: 4.789 | mean normalized intensity (log format), KIAA1462 protein [1]: 0.4371 | mean normalized intensity (log format), MCP-1 = monocyte chemotactic protein [1]: 2.955 | mean normalized intensity (log format), Rho GDP dissociation inhibitor (GDI) alpha [1]: −2.582 | mean normalized intensity (log format), WAS protein family, member 2 [1]: −1.06 | mean normalized intensity (log format), collagen, type IX, alpha 2 [1]: 2.935 | mean normalized intensity (log format), collagen, type VI, alpha 1 [1]: 0.6042 | mean normalized intensity (log format), glycophorin B (includes Ss blood group) [1]: −0.1297 | mean normalized intensity (log format), hepatocyte nuclear factor 4, alpha [1]: 0.4452 | mean normalized intensity (log format), homeo box HB9 [1]: 1.631 | mean normalized intensity (log format), hypothetical protein FLJ21032 [1]: 2.618 | mean normalized intensity (log format), hypothetical protein FLJ23091 [1]: 3.78 | mean normalized intensity (log format), hypothetical protein FLJ23403 [1]: −2.313 | mean normalized intensity (log format), matrix metalloproteinase 14 (membrane-inserted) [1]: −0.5185 | mean normalized intensity (log format), microfibrillar-associated protein 4 [1]: −0.6009 | mean normalized intensity (log format), myristoylated alanine-rich protein kinase C substrate (MARCKS, 80K-L) [1]: 0.3357 | mean normalized intensity (log format), neuropilin 1 [1]: −1.9667 | mean normalized intensity (log format), noggin [1]: 1.33 | mean normalized intensity (log format), phorbolin-like protein MDS019 [1]: 0.5035 | mean normalized intensity (log format), solute carrier family 16 (monocarboxylic acid transporters), member 3 [1]: 0.279 | mean normalized intensity (log format), splicing factor, arginineserine-rich 5 [1]: 4.272 | mean normalized intensity (log format), stanniocalcin 1 [1]: 6.143 | mean normalized intensity: DKFZP566K1924 protein [2]: 2.882 | mean normalized intensity: ESTs, Moderately similar to ALU2_HUMAN ALU SUBFAMILY SB SEQUENCE CONTAMINATION WARNING ENTRY (H. sapiens) [2]: 4.241 | mean normalized intensity: H. sapiens mRNA for B-HLH DNA binding protein. [2]: 5.43 | mean normalized intensity: Homo sapiens BCL2-interacting killer (apoptosis-inducing) (BIK), mRNA. [2]: 4.3 | mean normalized intensity: Homo sapiens Charot-Leyden crystal protein (CLC), mRNA. [2]: 3.301 | mean normalized intensity: Homo sapiens HES-related repressor protein 1 HERP1 mRNA, complete cds. [2]: 2.806 | mean normalized intensity: Homo sapiens HSPC156 protein (HSPC156), mRNA. [2]: 0.7862 | mean normalized intensity: Homo sapiens KIAA0469 gene product (KIAA0469), mRNA. [2]: 4.031 | mean normalized intensity: Homo sapiens PNAS-123 mRNA, complete cds [2]: 1.597 | mean normalized intensity: Homo sapiens Wilms tumor 1 (WT1), transcript variant D, mRNA. [2]: 2.405 | mean normalized intensity: Homo sapiens cDNA FLJ11398 fis, clone HEMBA1000637. [2]: 2.5268 | mean normalized intensity: Homo sapiens cDNA: FLJ22547 fis, clone HSI00356 [2]: 4.294 | mean normalized intensity: Homo sapiens cadherin 6, type 2, K-cadherin (fetal kidney) (CDH6), mRNA. [2]: 0.8248
